Where a SMILES comes first, the peptide text is derived from it. The star is where a group is joined. Cbz = O=C(OCc1ccccc1)*
Tests used:
Type in all cases: functional, cell-based
[1] = test system: KP-N-RT-BM-1; test: SANGER: Inhibition of human KP-N-RT-BM-1 cell growth in a cell viability assay.
[2] = test system: TC-YIK; test: SANGER: Inhibition of human TC-YIK cell growth in a cell viability assay.
[3] = test system: CP67-MEL; test: SANGER: Inhibition of human CP67-MEL cell growth in a cell viability assay.
[4] = test system: NCI-H2227; test: cells; settings: Homo sapiens;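 also: growth inhibition of the human cell line, read out with a cell viability assay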
Description: SANGER: Inhibition of human NCI-H2227 cell growth in a cell viability assay.

[5] = test system: NCI-H2107; test: SANGER: Inhibition of human NCI-H2107 cell growth in a cell viability assay.
[6] = test system: ECC12; test: cells; settings: Homo sapiens
Description: SANGER: Inhibition of human ECC12 cell growth in a cell viability assay.

[7] = test system: EW-7; test: SANGER: Inhibition of human EW-7 cell growth in a cell viability assay.
[8] = test system: MFE-296; test: SANGER: Inhibition of human MFE-296 cell growth in a cell viability assay.
[9] = test system: NCI-H2291; test: cells; settings: Homo sapiens
Description: SANGER: Inhibition of human NCI-H2291 cell growth in a cell viability assay.

[10] = test system: ECC10; test: cells; settings: Homo sapiens;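 also: growth inhibition of ECC10 cells, read out by a cell viability assay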
Description: SANGER: Inhibition of human ECC10 cell growth in a cell viability assay.

[11] = test system: A549; test: cells; settings: Homo sapiens;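 also: growth inhibition of A549 cells, read out with a cell viability assay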
Description: SANGER: Inhibition of human A549 cell growth in a cell viability assay.

[12] = test system: CHP-134; test: SANGER: Inhibition of human CHP-134 cell growth in a cell viability assay.
[13] = test system: YH-13; test: cells; settings: Homo sapiens;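 also: cell viability readout of growth suppression in the human YH-13 cell line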
Description: SANGER: Inhibition of human YH-13 cell growth in a cell viability assay.

[14] = test system: D-423MG; test: cells; settings: Homo sapiens
Description: SANGER: Inhibition of human D-423MG cell growth in a cell viability assay.

[15] = test system: TGBC11TKB; test: cells; settings: Homo sapiens;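 also: growth inhibition of human TGBC11TKB cells, measured by a cell viability assay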
Description: SANGER: Inhibition of human TGBC11TKB cell growth in a cell viability assay.

[16] = test system: D-566MG; test: cells; settings: Homo sapiens
[17] = test system: BT-549; test: cells; settings: Homo sapiens
Description: SANGER: Inhibition of human BT-549 cell growth in a cell viability assay.

[18] = test system: NCI-H2029; test: cells; settings: Homo sapiens;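 also: Read-out is a viability assay on the cultured cells, and IC50 is the concentration that suppresses cell growth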
Description: SANGER: Inhibition of human NCI-H2029 cell growth in a cell viability assay.

[19] = test system: H9; test: cells; settings: Homo sapiens
Description: SANGER: Inhibition of human H9 cell growth in a cell viability assay.

[20] = test system: H-EMC-SS; test: cells; settings: Homo sapiens
Description: SANGER: Inhibition of human H-EMC-SS cell growth in a cell viability assay.

[21] = test system: ZR-75-30; test: cells; settings: Homo sapiens;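 also: growth inhibition of ZR-75-30 cells, measured with a cell viability readout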
Description: SANGER: Inhibition of human ZR-75-30 cell growth in a cell viability assay.

[22] = test system: SW900; test: cells; settings: Homo sapiens;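 also: IC50 is the concentration that inhibits SW900 cell growth, measured by a cell viability assay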
Description: SANGER: Inhibition of human SW900 cell growth in a cell viability assay.

[23] = test system: OC-314; test: cells; settings: Homo sapiens
Description: SANGER: Inhibition of human OC-314 cell growth in a cell viability assay.

[24] = test system: RH-18; test: cells; settings: Homo sapiens, Rh18;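 also: growth inhibition of human RH-18 cells, read out with a cell viability assay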
Description: SANGER: Inhibition of human RH-18 cell growth in a cell viability assay.

[25] = test system: CFPAC-1; test: cells; settings: Homo sapiens;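 also: cell viability readout used to gauge suppression of CFPAC-1 cell proliferation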
Description: SANGER: Inhibition of human CFPAC-1 cell growth in a cell viability assay.

[26] = test system: NCI-H1048; test: cells; settings: Homo sapiens;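 also: growth inhibition of human NCI-H1048 cells, read out with a cell viability assay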
Description: SANGER: Inhibition of human NCI-H1048 cell growth in a cell viability assay.

[27] = test system: SW 1116; test: cells; settings: Homo sapiens;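 also: growth inhibition of SW1116 cells, read out with a cell viability assay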
Description: SANGER: Inhibition of human SW1116 cell growth in a cell viability assay.

[28] = test system: KNS-62; test: cells; settings: Homo sapiens;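 also: inhibition of cell growth, read out with a cell viability assay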
Description: SANGER: Inhibition of human KNS-62 cell growth in a cell viability assay.

[29] = test system: Caov-3 cell line; test: cells; settings: Homo sapiens;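 also: cell growth inhibition read out by a viability assay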
Description: SANGER: Inhibition of human Caov-3 cell growth in a cell viability assay.

[30] = test system: SNG-M; test: cells; settings: Homo sapiens
Description: SANGER: Inhibition of human SNG-M cell growth in a cell viability assay.

[31] = test system: SNU-475; test: cells; settings: Homo sapiens
Description: SANGER: Inhibition of human SNU-475 cell growth in a cell viability assay.

[32] = test system: TT; test: cells; settings: Homo sapiens
Description: SANGER: Inhibition of human TT cell growth in a cell viability assay.

[33] = test system: EFE-184; test: cells; settings: Homo sapiens
Description: SANGER: Inhibition of human EFE-184 cell growth in a cell viability assay.

[34] = test system: CCF-STTG1; test: cells; settings: Homo sapiens;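 also: growth inhibition of human CCF-STTG1 cells, determined with a cell viability read-out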
Description: SANGER: Inhibition of human CCF-STTG1 cell growth in a cell viability assay.

[35] = test system: NCI-H1618; test: cells; settings: Homo sapiens;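 also: growth inhibition of human NCI-H1618 cells, measured by a cell viability assay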
Description: SANGER: Inhibition of human NCI-H1618 cell growth in a cell viability assay.

[36] = test system: PLC-PRF-5; test: cells; settings: Homo sapiens;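 also: growth inhibition of human PLC-PRF-5 cells, read out with a viability assay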
Description: SANGER: Inhibition of human PLC-PRF-5 cell growth in a cell viability assay.

[37] = test system: SK-CO-1; test: cells; settings: Homo sapiens;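 also: growth inhibition of SK-CO-1 cells, determined by a viability readout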
Description: SANGER: Inhibition of human SK-CO-1 cell growth in a cell viability assay.

[38] = test system: MES-SA; test: cells; settings: Homo sapiens;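 also: growth inhibition of human MES-SA cells, read out with a cell viability assay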
Description: SANGER: Inhibition of human MES-SA cell growth in a cell viability assay.

Compound | IC50 [1] | IC50 [2] | IC50 [3] | IC50 [5] | IC50 [9] | IC50 [11] | IC50 [12] | IC50 [13] | IC50 [14] | IC50 [15] | IC50 [16] | IC50 [17] | IC50 [18] | IC50 [20] | IC50 [21] | IC50 [22] | IC50 [23] | IC50 [24] | IC50 [25] | IC50 [26] | other results
COc1cc(N2CCC(N3CCN(C)CC3)CC2)ccc1Nc1ncc(Cl)c(Nc2ccccc2S(=O)(=O)C(C)C)n1 [TAE-684] | 331 nM | > 2000 nM | > 2000 nM | – | – | – | – | – | – | – | – | – | – | – | – | – | – | – | – | – | –
CC(C)C[C@@H](C=O)NC(=O)[C@H](CC(C)C)NC(=O)[C@H](CC(C)C)NC(=O)OCc1ccccc1 [MG-132] (Cbz-Leu-Leu-Leu-aldehyde) | > 1000 nM | > 1000 nM | 267 nM | > 1000 nM | – | – | – | – | – | – | – | – | – | – | – | – | – | – | – | – | IC50 [4]: > 1000 nM; IC50 [6]: > 1000 nM
CO[C@@H]1[C@H](N(C)C(=O)c2ccccc2)C[C@H]2O[C@]1(C)n1c3ccccc3c3c4c(c5c6ccccc6n2c5c31)C(=O)NC4 [MIDOSTAURIN] | – | – | – | – | – | – | – | – | – | – | – | – | – | – | – | – | – | – | – | – | IC50 [7]: > 512 nM; IC50 [8]: > 512 nM
COc1ccc(N(C(=O)Oc2c(C)cccc2C)c2ccnc(Nc3ccc(N4CCN(C)CC4)cc3)n2)c(OC)c1 | > 5120 nM | – | > 5120 nM | > 5120 nM | – | – | – | – | – | – | – | – | – | – | – | – | – | – | – | – | –
O=C1NC(=O)c2c1c(-c1ccccc1Cl)cc1[nH]c3ccc(O)cc3c21 | – | – | – | – | > 2000 nM | > 2000 nM | > 2000 nM | > 2000 nM | > 2000 nM | > 2000 nM | > 2000 nM | > 2000 nM | > 2000 nM | > 2000 nM | > 2000 nM | > 2000 nM | > 2000 nM | > 2000 nM | > 2000 nM | > 2000 nM | IC50 [10]: 1410 nM; IC50 [19]: 832 nM; IC50 [27]: > 2000 nM
O=C(NCCCNc1nc(Nc2cccc(NC(=O)N3CCCC3)c2)ncc1I)c1cccs1 [BX-795] | – | – | – | – | > 5000 nM | 2140 nM | 1940 nM | 629 nM | 1610 nM | > 5000 nM | 1300 nM | 4450 nM | > 5000 nM | > 5000 nM | > 5000 nM | > 5000 nM | 3050 nM | > 5000 nM | > 5000 nM | 1790 nM | IC50 [28]: > 5000 nM; IC50 [27]: > 5000 nM
CN(C)CCOc1ccc(-c2nc(-c3ccncc3)c(-c3ccc4c(c3)CC/C4=N\O)[nH]2)cc1 [SB590885] | – | – | – | – | > 5000 nM | > 5000 nM | > 5000 nM | > 5000 nM | > 5000 nM | > 5000 nM | > 5000 nM | > 5000 nM | > 5000 nM | 351 nM | > 5000 nM | > 5000 nM | > 5000 nM | > 5000 nM | > 5000 nM | > 5000 nM | IC50 [10]: > 5000 nM; IC50 [28]: > 5000 nM; IC50 [19]: 401 nM; IC50 [27]: > 5000 nM
C[C@@H](Oc1cc(-c2cnn(C3CCNCC3)c2)cnc1N)c1c(Cl)ccc(F)c1Cl [CRIZOTINIB] | > 2000 nM | > 2000 nM | > 2000 nM | – | – | – | – | – | – | – | – | – | – | – | – | – | – | – | – | – | –
OC[C@H](Cc1ccccc1)Nc1nc(Oc2ccc3c(c2)CCC3)nc2c1ncn2Cc1ccc(-c2ccccc2)cc1 | – | – | – | – | – | – | – | – | – | – | – | – | – | – | – | – | – | – | – | – | IC50 [29]: > 10200 nM; IC50 [30]: 5930 nM; IC50 [31]: > 10200 nM; IC50 [7]: > 10200 nM; IC50 [4]: > 10200 nM; IC50 [32]: > 10200 nM; IC50 [8]: > 10200 nM; IC50 [33]: > 10200 nM; IC50 [34]: > 10200 nM; IC50 [35]: > 10200 nM; IC50 [36]: > 10200 nM; IC50 [37]: > 10200 nM; IC50 [38]: > 10200 nM
NC(=O)c1cccc(-c2cc(Nc3ccc(OC(F)(F)F)cc3)ncn2)c1 | > 1280 nM | – | > 1280 nM | > 1280 nM | – | – | – | – | – | – | – | – | – | – | – | – | – | – | – | – | –

From ChEMBL document CHEMBL1201861, “Genomics of Drug Sensitity in Cancer screening data, Wellcome Trust Sanger Institute”
